Test results taken from patent US20250275540A1, “USE OF PROTOPORPHYRINOGEN OXIDASE” (BEIJING DABEINONG BIOTECHNOLOGY CO., LTD., priority 2022, published 2025).

Test system: transgenic Arabidopsis thaliana T1 plants
Experiment: Detection of the herbicide tolerance of the transgenic Arabidopsis thaliana plants
Format: in vivo
Conditions: for The grade of pesticide damage/plant: 0 / The grade of pesticide damage/plant: 1 / The grade of pesticide damage/plant: 2 / The grade of pesticide damage/plant: 3: 7 DAT
Source text: The transformed Arabidopsis thaliana T1 plants were initially selected using glufosinate herbicide. The Arabidopsis thaliana T1 plants (PPOA-01) into which the PPOA-01 nucleotide sequence was introduced, the Arabidopsis thaliana T1 plants (PPOB-01) into which the PPOB-01 nucleotide sequence was introduced, the Arabidopsis thaliana T1 plants (PPOC-01) into which the PPOC-01 nucleotide sequence was introduced, the Arabidopsis thaliana T1 plants (PPOD-01) into which the PPOD-01 nucleotide sequence was introduced, the Arabidopsis thaliana T1 plants (PPOE-01) into which the PPOE-01 nucleotide sequence was introduced, the Arabidopsis thaliana T1 plants (PPOF-01) into which the PPOF-01 nucleotide sequence was introduced, the Arabidopsis thaliana T1 plants (PPO-AP-01) into which the PPO-AP-01 nucleotide sequence was introduced, and the Arabidopsis thaliana T1 plants (control vector) into which the control vector was introduced, the wild-type Arabidopsis thaliana plants (CK) (with 24 plants being included in each genotype) (18 days after sowing) were sprayed with saflufenacil at three concentrations (25 g ai/ha (one-fold field concentration, 1×), 100 g ai/ha (four-fold field concentration, 4×), and 0 g ai/ha (water, 0×)), oxyfluorfen at three concentrations (180 g ai/ha (one-fold field concentration, 1×), 720 g ai/ha (four-fold field concentration, 4×), and 0 g ai/ha (water, 0×)), and flumioxazin at three concentrations (60 g ai/ha (one-fold field concentration, 1×), 240 g ai/ha (four-fold field concentration, 4×), and 0 g ai/ha (water, 0×) to determine the tolerance of Arabidopsis thaliana to the herbicides. After 7 days of spraying (7 DAT), the damage level of each plant caused by the herbicide was evaluated according to the average of the damage levels (%) of plants (the average of the damage levels (%) of plants=the injured leaf area/the total leaf area×100%), i.e., the grade of pesticide damage: grade 0 means that the growth status of plants is essentially consistent with those sprayed with the blank solvent (water); grade 1 means that the average of the damage levels of plants is less than 10%; grade 2 means that the average of the damage levels of plants is greater than 10%; and grade 3 means that the average of the damage levels of plants is 100%. The plants having a growth status falling within grades 0 and 1 are classified as highly resistant plants; those having a growth status falling within grade 2 are classified as poorly resistant plants; and those having a growth status falling within grade 3 are classified as non-resistant plants.

[1] = genotype Control vector, 60 g ai/ha
[2] = genotype Control vector, 240 g ai/ha
[3] = genotype PPO-AP-01, 240 g ai/ha

Compound: C#CCN1C(=O)COc2cc(F)c(N3C(=O)C4=C(CCCC4)C3=O)cc21 [flumioxazin, 2-[7-fluoro-3,4-dihydro-3-oxo-4-(2-propynyl)-2H-1,4-benzoxazin-6-yl]-4,5,6,7-tetrahydro-1H-isoindole-1,3(2H)-dione]
- effective dose distinguishing sensitive plants from plants having an average level of resistance (Arabidopsis thaliana): 60 g ai/ha
- The grade of pesticide damage/plant: 0 (genotype CK, 60 g ai/ha): 0 plant
- The grade of pesticide damage/plant: 1 (genotype CK, 60 g ai/ha): 0 plant
- The grade of pesticide damage/plant: 2 (genotype CK, 60 g ai/ha): 0 plant
- The grade of pesticide damage/plant: 3 (genotype CK, 60 g ai/ha): 24 plant
- The grade of pesticide damage/plant: 0 (genotype CK, 240 g ai/ha): 0 plant
- The grade of pesticide damage/plant: 1 (genotype CK, 240 g ai/ha): 0 plant
- The grade of pesticide damage/plant: 2 (genotype CK, 240 g ai/ha): 0 plant
- The grade of pesticide damage/plant: 3 (genotype CK, 240 g ai/ha): 24 plant
- The grade of pesticide damage/plant: 0 [1]: 0 plant
- The grade of pesticide damage/plant: 1 [1]: 0 plant
- The grade of pesticide damage/plant: 2 [1]: 0 plant
- The grade of pesticide damage/plant: 3 [1]: 24 plant
- The grade of pesticide damage/plant: 0 [2]: 0 plant
- The grade of pesticide damage/plant: 1 [2]: 0 plant
- The grade of pesticide damage/plant: 2 [2]: 0 plant
- The grade of pesticide damage/plant: 3 [2]: 24 plant
- The grade of pesticide damage/plant: 0 (genotype PPO-AP-01, 60 g ai/ha): 0 plant
- The grade of pesticide damage/plant: 1 (genotype PPO-AP-01, 60 g ai/ha): 0 plant
- The grade of pesticide damage/plant: 2 (genotype PPO-AP-01, 60 g ai/ha): 0 plant
- The grade of pesticide damage/plant: 3 (genotype PPO-AP-01, 60 g ai/ha): 24 plant
- The grade of pesticide damage/plant: 0 [3]: 0 plant
- The grade of pesticide damage/plant: 1 [3]: 0 plant
- The grade of pesticide damage/plant: 2 [3]: 0 plant
- The grade of pesticide damage/plant: 3 [3]: 24 plant
- tolerance to the herbicide (in words) (genotype PPO-AP-01, four-fold field concentration): no tolerance
- tolerance to the herbicide (in words) (genotype PPO-AP-01, one-fold field concentration): no tolerance
- The grade of pesticide damage/plant: 0 (genotype PPOA-01, 60 g ai/ha): 24 plant
- The grade of pesticide damage/plant: 1 (genotype PPOA-01, 60 g ai/ha): 0 plant
- The grade of pesticide damage/plant: 2 (genotype PPOA-01, 60 g ai/ha): 0 plant
- The grade of pesticide damage/plant: 3 (genotype PPOA-01, 60 g ai/ha): 0 plant
- The grade of pesticide damage/plant: 0 (genotype PPOA-01, 240 g ai/ha): 18 plant
- The grade of pesticide damage/plant: 1 (genotype PPOA-01, 240 g ai/ha): 6 plant
- The grade of pesticide damage/plant: 2 (genotype PPOA-01, 240 g ai/ha): 0 plant
- The grade of pesticide damage/plant: 3 (genotype PPOA-01, 240 g ai/ha): 0 plant
- The grade of pesticide damage/plant: 0 (genotype PPOB-01, 60 g ai/ha): 24 plant
- The grade of pesticide damage/plant: 1 (genotype PPOB-01, 60 g ai/ha): 0 plant
- The grade of pesticide damage/plant: 2 (genotype PPOB-01, 60 g ai/ha): 0 plant
- The grade of pesticide damage/plant: 3 (genotype PPOB-01, 60 g ai/ha): 0 plant
- The grade of pesticide damage/plant: 0 (genotype PPOB-01, 240 g ai/ha): 18 plant
- The grade of pesticide damage/plant: 1 (genotype PPOB-01, 240 g ai/ha): 6 plant
- The grade of pesticide damage/plant: 2 (genotype PPOB-01, 240 g ai/ha): 0 plant
- The grade of pesticide damage/plant: 3 (genotype PPOB-01, 240 g ai/ha): 0 plant
- The grade of pesticide damage/plant: 0 (genotype PPOC-01, 60 g ai/ha): 24 plant
- The grade of pesticide damage/plant: 1 (genotype PPOC-01, 60 g ai/ha): 0 plant
- The grade of pesticide damage/plant: 2 (genotype PPOC-01, 60 g ai/ha): 0 plant
- The grade of pesticide damage/plant: 3 (genotype PPOC-01, 60 g ai/ha): 0 plant
- The grade of pesticide damage/plant: 0 (genotype PPOC-01, 240 g ai/ha): 24 plant
- The grade of pesticide damage/plant: 1 (genotype PPOC-01, 240 g ai/ha): 0 plant
- The grade of pesticide damage/plant: 2 (genotype PPOC-01, 240 g ai/ha): 0 plant
- The grade of pesticide damage/plant: 3 (genotype PPOC-01, 240 g ai/ha): 0 plant
- The grade of pesticide damage/plant: 0 (genotype PPOD-01, 60 g ai/ha): 24 plant
- The grade of pesticide damage/plant: 1 (genotype PPOD-01, 60 g ai/ha): 0 plant
- The grade of pesticide damage/plant: 2 (genotype PPOD-01, 60 g ai/ha): 0 plant
- The grade of pesticide damage/plant: 3 (genotype PPOD-01, 60 g ai/ha): 0 plant
- The grade of pesticide damage/plant: 0 (genotype PPOD-01, 240 g ai/ha): 24 plant
- The grade of pesticide damage/plant: 1 (genotype PPOD-01, 240 g ai/ha): 0 plant
- The grade of pesticide damage/plant: 2 (genotype PPOD-01, 240 g ai/ha): 0 plant
- The grade of pesticide damage/plant: 3 (genotype PPOD-01, 240 g ai/ha): 0 plant
- The grade of pesticide damage/plant: 0 (genotype PPOE-01, 60 g ai/ha): 22 plant
- The grade of pesticide damage/plant: 1 (genotype PPOE-01, 60 g ai/ha): 2 plant
- The grade of pesticide damage/plant: 2 (genotype PPOE-01, 60 g ai/ha): 0 plant
- The grade of pesticide damage/plant: 3 (genotype PPOE-01, 60 g ai/ha): 0 plant
- The grade of pesticide damage/plant: 0 (genotype PPOE-01, 240 g ai/ha): 23 plant
- The grade of pesticide damage/plant: 1 (genotype PPOE-01, 240 g ai/ha): 0 plant
- The grade of pesticide damage/plant: 2 (genotype PPOE-01, 240 g ai/ha): 0 plant
- The grade of pesticide damage/plant: 3 (genotype PPOE-01, 240 g ai/ha): 1 plant
- number of non-resistant plants (genotype PPOE-01, four-fold field concentration): 1 plant
- tolerance to the herbicide (in words) (genotype PPOE-01, the other plants, four-fold field concentration): high-resistant tolerance
- The grade of pesticide damage/plant: 0 (genotype PPOF-01, 60 g ai/ha): 24 plant
- The grade of pesticide damage/plant: 1 (genotype PPOF-01, 60 g ai/ha): 0 plant
- The grade of pesticide damage/plant: 2 (genotype PPOF-01, 60 g ai/ha): 0 plant
- The grade of pesticide damage/plant: 3 (genotype PPOF-01, 60 g ai/ha): 0 plant
- The grade of pesticide damage/plant: 0 (genotype PPOF-01, 240 g ai/ha): 18 plant
- The grade of pesticide damage/plant: 1 (genotype PPOF-01, 240 g ai/ha): 6 plant
- The grade of pesticide damage/plant: 2 (genotype PPOF-01, 240 g ai/ha): 0 plant
- The grade of pesticide damage/plant: 3 (genotype PPOF-01, 240 g ai/ha): 0 plant
- tolerance to the herbicide (in words) (genotypes PPOA-01 to PPOD-01 and PPOF-01, four-fold field concentration): high-resistant tolerance
- tolerance to the herbicide (in words) (genotypes PPOA-01 to PPOF-01, one-fold field concentration): high-resistant tolerance
